Assay results as given in patent publication US6638957B1, “Use of compounds with a nitrogen-oxygen heterocycle” (Jomaa Pharmaka GmbH, priority 1999, dated 2003).
≈ marks a conversion by molar mass, not a printed value. Where two headings read alike, the source gives them in different places.

What was measured:
[1] = molecular target: T1, DOXP reductoisomerase of Escherichia coli (UniProt P56139); assay: inhibition of recombinant DOXP reductoisomerase (NADPH oxidation); type: biochemical; conditions: 1 mM DOXP, 0,3 mM NADPH, pH 7,5; read-out: IC50(nM) of DOXP reductoisomerase from Helicobacter pilori
T1 sequence (P56139 1-368): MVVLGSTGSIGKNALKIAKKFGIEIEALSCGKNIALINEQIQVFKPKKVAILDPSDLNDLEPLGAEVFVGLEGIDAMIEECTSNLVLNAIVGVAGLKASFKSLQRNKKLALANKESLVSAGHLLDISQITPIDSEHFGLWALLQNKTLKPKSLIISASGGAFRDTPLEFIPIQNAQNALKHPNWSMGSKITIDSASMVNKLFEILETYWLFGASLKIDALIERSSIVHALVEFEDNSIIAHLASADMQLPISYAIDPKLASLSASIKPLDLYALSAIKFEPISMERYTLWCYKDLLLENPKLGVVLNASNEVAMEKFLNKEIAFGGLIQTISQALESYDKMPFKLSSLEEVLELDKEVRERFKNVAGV

[2] = tested on: Pseudomonas aeruginosa; assay: antibacterial activity, minimum inhibition concentration in liquid culture; type: cell-based; conditions: read-out: MIC(nM) of bacteria culture (Pseudomonas aeruginosa)
Description: A dilution series comprising the concentrations 500, 100, 50, 10 and 0 μmol 1^−1 of the individual compounds in LB medium is introduced into 5 culture microtubes in a volume of 0,5 ml. The tubes were inoculated with 10 μl of an overnight culture of E. coli K12 and shaken overnight at 37° C. The growth of the bacteria was assessed on the basis of the turbidity of the medium. The minimum concentration causing inhibition of bacterial growth was determined (minimum inhibition concentration MIC)
The antibacterial activity of P. aeruginosa was determined in the same manner.

[3] = tested on: Abutilon theophrasti; assay: herbicidal activity, Erde Vorauflauf; type: in vivo
Description: (§1) The determination of herbicidal activity is performed according to standard procedure. Again the compounds listed on page 9 are tested.

[4] = tested on: Zea mays; assay: herbicidal activity, Erde Vorauflauf; type: in vivo
Description: as §1

[5] = tested on: Setaria viridis; assay: herbicidal activity, Erde Vorauflauf; type: in vivo
Description: as §1

[6] = tested on: Galium aperine; assay: herbicidal activity, Erde Vorauflauf; type: in vivo
Description: as §1

[7] = tested on: Cyperus esculentus; assay: herbicidal activity, Erde Vorauflauf; type: in vivo
Description: as §1

[8] = tested on: Xanthium strumarium; assay: herbicidal activity, Erde Vorauflauf; type: in vivo
Description: as §1

[9] = tested on: Sinapis arvensis; assay: herbicidal activity, Erde Vorauflauf; type: in vivo; conditions: Mutarda arvensis
Description: as §1

[10] = tested on: Beta vulgaris; assay: herbicidal activity, Erde Vorauflauf; type: in vivo
Description: as §1

[11] = tested on: Alopecurus myosuroides; assay: herbicidal activity, Erde Vorauflauf; type: in vivo
Description: as §1

[12] = tested on: Avena fatua; assay: herbicidal activity, Erde Vorauflauf; type: in vivo
Description: as §1

[13] = tested on: Amaranthus retroflexus; assay: herbicidal activity, Erde Vorauflauf; type: in vivo
Description: as §1

[14] = tested on: Echinochloa; assay: herbicidal activity, Hydro Vorauflauf; type: in vivo
Description: as §1

[15] = tested on: Reis; assay: herbicidal activity, Hydro Vorauflauf; type: in vivo
Description: as §1

[16] = tested on: Lepidium; assay: herbicidal activity, Hydro Vorauflauf; type: in vivo
Description: as §1

[17] = tested on: Solanum; assay: herbicidal activity, Hydro Vorauflauf; type: in vivo
Description: as §1

[18] = tested on: Abutilon theophrasti; assay: herbicidal activity, Erde Nachauflauf; type: in vivo
Description: as §1

[19] = tested on: Zea mays; assay: herbicidal activity, Erde Nachauflauf; type: in vivo
Description: as §1

[20] = tested on: Setaria viridis; assay: herbicidal activity, Erde Nachauflauf; type: in vivo
Description: as §1

[21] = tested on: Galium aperine; assay: herbicidal activity, Erde Nachauflauf; type: in vivo
Description: as §1

[22] = tested on: Cyperus esculentus; assay: herbicidal activity, Erde Nachauflauf; type: in vivo
Description: as §1

[23] = tested on: Xanthium strumarium; assay: herbicidal activity, Erde Nachauflauf; type: in vivo
Description: as §1

[24] = tested on: Sinapis arvensis; assay: herbicidal activity, Erde Nachauflauf; type: in vivo; conditions: Mutarda arvensis
Description: as §1

[25] = tested on: Beta vulgaris; assay: herbicidal activity, Erde Nachauflauf; type: in vivo
Description: as §1

[26] = tested on: Alopecurus myosuroides; assay: herbicidal activity, Erde Nachauflauf; type: in vivo
Description: as §1

[27] = tested on: Avena fatua; assay: herbicidal activity, Erde Nachauflauf; type: in vivo
Description: as §1

[28] = tested on: Amaranthus retroflexus; assay: herbicidal activity, Erde Nachauflauf; type: in vivo
Description: as §1

[29] = tested on: Plasmodium falciparum; assay: antimalaria activity on in vitro cultures, [3H]-hypoxanthine incorporation; type: cell-based; conditions: 72 h, inhibition of [3H]-hypoxanthine incorporation, 48 + 24 hours, read-out: IC50(nM) of malaria culture (Plasmodium falciparum)
Description: The antimalaria activity of the compounds listed on page 9 was determined on in vitro cultures of the malaria pathogen Plasmodium falciparum. The depressions of a 96-well microtitre plate were charged with in each case 200 μl of an asynchroneous Plasmodium falciparum culture at a parasitaemia of 0,4% and haematokrit of 2%. A serial dilution series of the compounds in triple steps between concentrations of 100 to 0,14 μmol 1^−1 was then prepared. The plates were incubated at 37° C., 3% CO2 and 5% O2 over a period of 48 hours. 30 μl medium supplemented with 27 μCi ml^−1 [^3H]-hypoxanthine were then added to each well. After incubation for 24 hours the parasites were harvested by filtration on a glass fibre filter and the radioactivity which had been incorporated was measured. The inhibition of the growth of parasites was measured as the percentage inhibition of the incorporation of tritium. Inhibition of the growth of the parasites has been determined as percentage inhibition of incorporation of tritium based on a comparison without the substance. The half-maximum inhibitory concentration (IC50) of the substance was determined by extrapolation of the values.

**Q.** How did the IC50 [1] turn out when O=C1CCON1CC(O)CP(=O)(O)O (stereo not shown) [Compound 2] was run?
**A.** 110 nM

**Q.** And the MIC [2]?
**A.** 1600 nM (≈ 0.36 µg/mL)

**Q.** What about the pest or weed control at 500 g/ha ([3]; 500 Gramm/Hektar) of the same compound?
**A.** 0%

**Q.** And the plant injury at 500 g/ha ([4]; 500 Gramm/Hektar)?
**A.** 0%

**Q.** What about the pest or weed control at 500 g/ha ([5]; 500 Gramm/Hektar) of the same compound?
**A.** 0%

**Q.** What about the pest or weed control at 500 g/ha ([6]; 500 Gramm/Hektar) of the same compound?
**A.** 0%

**Q.** What about the pest or weed control at 500 g/ha ([7]; 500 Gramm/Hektar) of the same compound?
**A.** 0%

**Q.** And the pest or weed control at 500 g/ha ([8]; 500 Gramm/Hektar)?
**A.** 0%

**Q.** What about the pest or weed control at 500 g/ha ([9]; 500 Gramm/Hektar) of the same compound?
**A.** 0%

**Q.** And the plant injury at 500 g/ha ([10]; 500 Gramm/Hektar)?
**A.** 0%

**Q.** What about the pest or weed control at 500 g/ha ([11]; 500 Gramm/Hektar) of the same compound?
**A.** 0%

**Q.** And the pest or weed control at 500 g/ha ([12]; 500 Gramm/Hektar)?
**A.** 0%

**Q.** And the pest or weed control at 500 g/ha ([13]; 500 Gramm/Hektar)?
**A.** 0%

**Q.** What about the pest or weed control at 1000 g/ha ([14]; 1000 Gramm/Hektar) of the same compound?
**A.** 0%

**Q.** And the pest or weed control at 1000 g/ha ([15]; 1000 Gramm/Hektar)?
**A.** 0%

**Q.** What about the pest or weed control at 1000 g/ha ([16]; 1000 Gramm/Hektar) of the same compound?
**A.** 0%

**Q.** What about the pest or weed control at 1000 g/ha ([17]; 1000 Gramm/Hektar) of the same compound?
**A.** 0%

**Q.** What about the pest or weed control at 500 g/ha ([18]; 500 Gramm/Hektar) of the same compound?
**A.** 0%

**Q.** And the plant injury at 500 g/ha ([19]; 500 Gramm/Hektar)?
**A.** 0%

**Q.** And the pest or weed control at 500 g/ha ([20]; 500 Gramm/Hektar)?
**A.** 90%

**Q.** And the pest or weed control at 500 g/ha ([21]; 500 Gramm/Hektar)?
**A.** 0%

**Q.** What about the pest or weed control at 500 g/ha ([22]; 500 Gramm/Hektar) of the same compound?
**A.** 0%

**Q.** And the pest or weed control at 500 g/ha ([23]; 500 Gramm/Hektar)?
**A.** 50%

**Q.** And the pest or weed control at 500 g/ha ([24]; 500 Gramm/Hektar)?
**A.** 30%

**Q.** And the plant injury at 500 g/ha ([25]; 500 Gramm/Hektar)?
**A.** 0%

**Q.** And the pest or weed control at 500 g/ha ([26]; 500 Gramm/Hektar)?
**A.** 0%

**Q.** What about the pest or weed control at 500 g/ha ([27]; 500 Gramm/Hektar) of the same compound?
**A.** 30%

**Q.** And the pest or weed control at 500 g/ha ([28]; 500 Gramm/Hektar)?
**A.** 0%

**Q.** What about the IC50 [29] of the same compound?
**A.** 1200 nM

**Q.** How did the IC50 [1] turn out when CC(C)N(C)CCCN1OCCC1=O [Compound 7] was run?
**A.** 18 nM

**Q.** And the MIC ([2]; LB medium, overnight at 37° C., turbidity)?
**A.** 9000 nM (≈ 1.8 µg/mL)

**Q.** And the pest or weed control at 2000 g/ha ([3]; 2000 Gramm/Hektar)?
**A.** 0%

**Q.** What about the plant injury at 2000 g/ha ([4]; 2000 Gramm/Hektar) of the same compound?
**A.** 30%

**Q.** And the pest or weed control at 2000 g/ha ([5]; 2000 Gramm/Hektar)?
**A.** 0%

**Q.** And the pest or weed control at 2000 g/ha ([6]; 2000 Gramm/Hektar)?
**A.** 0%

**Q.** What about the pest or weed control at 2000 g/ha ([7]; 2000 Gramm/Hektar) of the same compound?
**A.** 0%

**Q.** And the pest or weed control at 2000 g/ha ([8]; 2000 Gramm/Hektar)?
**A.** 0%

**Q.** What about the pest or weed control at 2000 g/ha ([9]; 2000 Gramm/Hektar) of the same compound?
**A.** 30%

**Q.** And the plant injury at 2000 g/ha ([10]; 2000 Gramm/Hektar)?
**A.** 70%

**Q.** And the pest or weed control at 2000 g/ha ([11]; 2000 Gramm/Hektar)?
**A.** 30%

**Q.** What about the pest or weed control at 2000 g/ha ([12]; 2000 Gramm/Hektar) of the same compound?
**A.** 30%

**Q.** And the pest or weed control at 2000 g/ha ([13]; 2000 Gramm/Hektar)?
**A.** 20%

**Q.** What about the pest or weed control at 4000 g/ha ([14]; 4000 Gramm/Hektar) of the same compound?
**A.** 40%

**Q.** What about the pest or weed control at 4000 g/ha ([15]; 4000 Gramm/Hektar) of the same compound?
**A.** 30%

**Q.** And the pest or weed control at 4000 g/ha ([16]; 4000 Gramm/Hektar)?
**A.** 0%

**Q.** And the pest or weed control at 4000 g/ha ([17]; 4000 Gramm/Hektar)?
**A.** 30%

**Q.** And the pest or weed control at 2000 g/ha ([18]; 2000 Gramm/Hektar)?
**A.** 50%

**Q.** What about the plant injury at 2000 g/ha ([19]; 2000 Gramm/Hektar) of the same compound?
**A.** 70%

**Q.** And the pest or weed control at 2000 g/ha ([20]; 2000 Gramm/Hektar)?
**A.** 90%

**Q.** What about the pest or weed control at 2000 g/ha ([21]; 2000 Gramm/Hektar) of the same compound?
**A.** 95%

**Q.** And the pest or weed control at 2000 g/ha ([22]; 2000 Gramm/Hektar)?
**A.** 0%

**Q.** What about the pest or weed control at 2000 g/ha ([23]; 2000 Gramm/Hektar) of the same compound?
**A.** 90%

**Q.** And the pest or weed control at 2000 g/ha ([24]; 2000 Gramm/Hektar)?
**A.** 80%

**Q.** And the plant injury at 2000 g/ha ([25]; 2000 Gramm/Hektar)?
**A.** 70%

**Q.** What about the pest or weed control at 2000 g/ha ([26]; 2000 Gramm/Hektar) of the same compound?
**A.** 80%

**Q.** What about the pest or weed control at 2000 g/ha ([27]; 2000 Gramm/Hektar) of the same compound?
**A.** 80%

**Q.** And the pest or weed control at 2000 g/ha ([28]; 2000 Gramm/Hektar)?
**A.** 50%

**Q.** And the IC50 [29]?
**A.** 400 nM
